Results taken from patent US12256736B2, “Pyridazine compound and herbicide” (Nippon Soda Co., Ltd., priority 2019, dated 2025).

Key:
Type in all cases: in vivo
Digitaria ciliaris [1] = assay: Test Example 2: tests of treating shoots, herbicidal index; settings: 63 g/ha, sprayed onto shoots, four weeks after the treatment
Procedure: (§1) An emulsifiable concentrate for test was prepared in the same manner as that described in Test Example 1.
(§2) Seeds of each of Lolium multiflorum, Digitaria ciliaris, and Zea mays for feed were placed in a surface layer of soil filled in a pot with a size of 150 cm^2 and then lightly covered with soil. Subsequently, the pots were kept in a greenhouse to allow the plants to grow. When each of Lolium multiflorum and Digitaria ciliaris grew to a shoot height ranging from 2 to 4 cm, and Zea mays for feed grew to a shoot height ranging from 20 to 30 cm, the emulsifiable concentrate mentioned above was diluted with water so as to have a specified amount of the active ingredient, and then sprayed onto the shoot parts by means of a small-sized sprayer at an application rate of 250 L of water per hectare.
(§3) Four weeks after the treatment, the weight of the shoot part of the alive plant in the untreated plot and the treated plot with respect to each of Lolium multiflorum, Digitaria ciliaris, and Zea mays for feed was measured. The herbicidal index was calculated according to the calculation expression described below.
(§4) (4) Calculation Expression for Herbicidal Index Herbicidal index (%)=[(Weight of the shoot part of the alive plant in the untreated plot−Weight of the shoot part of the alive plant in the treated plot)/(Weight of the shoot part of the alive plant in the untreated plot)]×100
(§5) A diluted emulsifiable concentrate of the compound of A-2 was sprayed at a dosage of 63 g of the compound per hectare.
(§6) In addition, with respect to the compound (A) described in Patent Document 1, the same application as described above was carried out.

Lolium multiflorum [2] = assay: as above; settings: 63 g/ha, sprayed onto shoots, four weeks after the treatment
Procedure: as §1, §2, §3, §4, §5, §6

Zea mays for feed [3] = assay: Test Example 2: tests of treating shoots, herbicidal index (crop); settings: 63 g/ha, sprayed onto shoots (crop, shoot height 20 to 30 cm), four weeks after the treatment
Procedure: as §1, §2, §3
(4) Calculation Expression for Herbicidal Index Herbicidal index (%)=[(Weight of the shoot part of the alive plant in the untreated plot−Weight of the shoot part of the alive plant in the treated plot)/(Weight of the shoot part of the alive plant in the untreated plot)]×100 […]

Abutilon theophrasti = assay: Test Example 3: spraying onto shoots, herbicidal index; settings: sprayed onto shoots, three weeks after the treatment
Procedure: as §1
(§7) Seeds of each of Zea mays for feed, Alopecurus myosuroides, Lolium multiflorum, Avena sativa, Digitaria ciliaris, Setaria faberi, Abutilon theophrasti, and Amaranthus retroflexus were placed in a surface layer of soil filled in a pot with a size of 150 cm^2 and then lightly covered with soil. Subsequently, the pots were kept in a greenhouse to allow the plants to grow. When each of Alopecurus myosuroides, Lolium multiflorum, Avena sativa, Digitaria ciliaris, Setaria faberi, Abutilon theophrasti, and Amaranthus retroflexus grew to a shoot height ranging from 2 to 4 cm, and Zea mays for feed grew to a shoot height ranging from 20 to 30 cm, the emulsifiable concentrate mentioned above was diluted with water so as to have a specified amount of the active ingredient, and then sprayed onto the shoot parts by means of a small-sized sprayer at an application rate of 250 L of water per hectare.
(§8) Three weeks after the treatment, the weight of the shoot part of the alive plant in the untreated plot and the treated plot with respect to each plant was measured. The herbicidal index was calculated according to the calculation expression described below.
as §4
(§9) A diluted emulsifiable concentrate of the compound of A-2 was sprayed at a dosage of 250 g or 63 g of the compound per hectare.
as §6

Alopecurus myosuroides = assay: as above; settings: sprayed onto shoots, three weeks after the treatment
Procedure: as §1, §7, §8, §4, §9, §6

Amaranthus retroflexus = assay: as above; settings: sprayed onto shoots, three weeks after the treatment
Procedure: as §1, §7, §8, §4, §9, §6

Avena sativa = assay: as above; settings: sprayed onto shoots, three weeks after the treatment
Procedure: as §1, §7, §8, §4, §9, §6

Digitaria ciliaris [4] = assay: as above; settings: sprayed onto shoots, three weeks after the treatment
Procedure: as §1, §7, §8, §4, §9, §6

Lolium multiflorum [5] = assay: as above; settings: sprayed onto shoots, three weeks after the treatment
Procedure: as §1, §7, §8, §4, §9, §6

Setaria faberi = assay: as above; settings: sprayed onto shoots, three weeks after the treatment
Procedure: as §1, §7, §8, §4, §9, §6

Zea mays for feed [6] = assay: Test Example 3: spraying onto shoots, herbicidal index (crop); settings: sprayed onto shoots (crop, shoot height 20 to 30 cm), three weeks after the treatment
Procedure: as §1, §7, §8, §4, §9, §6

Row | Compound | Herbicidal index Digitaria ciliaris (Digitaria ciliaris [1]) [%] | Herbicidal index Lolium multiflorum (Lolium multiflorum [2]) [%] | Herbicidal index Zea mays for feed (Zea mays for feed [3]) [%] | Herbicidal index Abutilon theophrasti (Abutilon theophrasti; 63 g ai/ha) [%] | Herbicidal index Abutilon theophrasti (Abutilon theophrasti; 250 g ai/ha) [%] | Herbicidal index Alopecurus myosuroides (Alopecurus myosuroides; 63 g ai/ha) [%] | Herbicidal index Alopecurus myosuroides (Alopecurus myosuroides; 250 g ai/ha) [%] | Herbicidal index Amaranthus retroflexus (Amaranthus retroflexus; 63 g ai/ha) [%] | Herbicidal index Amaranthus retroflexus (Amaranthus retroflexus; 250 g ai/ha) [%] | Herbicidal index Avena sativa (Avena sativa; 63 g ai/ha) [%] | Herbicidal index Avena sativa (Avena sativa; 250 g ai/ha) [%] | Herbicidal index Digitaria ciliaris (Digitaria ciliaris [4]; 63 g ai/ha) [%] | Herbicidal index Digitaria ciliaris (Digitaria ciliaris [4]; 250 g ai/ha) [%] | Herbicidal index Lolium multiflorum (Lolium multiflorum [5]; 63 g ai/ha) [%] | Herbicidal index Lolium multiflorum (Lolium multiflorum [5]; 250 g ai/ha) [%] | Herbicidal index Setaria faberi (Setaria faberi; 63 g ai/ha) [%] | Herbicidal index Setaria faberi (Setaria faberi; 250 g ai/ha) [%] | Herbicidal index Zea mays for feed (Zea mays for feed [6]; 63 g ai/ha) [%] | Herbicidal index Zea mays for feed (Zea mays for feed [6]; 250 g ai/ha) [%]
1 | Cn1ncc(-c2ccc(C(F)(F)F)cc2S(C)(=O)=O)c(O)c1=O [(A)] | 80 | 40 | 50 | 80 | 90 | 50 | 90 | 100 | 100 | 60 | 80 | 80 | 90 | 40 | 50 | 80 | 100 | 40 | 90
2 | Cn1ncc(-c2ccc(C(F)(F)F)c3c2CCCS3(=O)=O)c(O)c1=O [Compound A-2, 5-(1,1-dioxido-8-(trifluoromethyl)thiochroman-5-yl)-4-hydroxy-2-methylpyridazin-3(2H)-one] | 90 | 100 | 0 | 100 | 100 | 80 | 100 | 100 | 100 | 100 | 100 | 90 | 100 | 100 | 100 | 100 | 100 | 0 | 20
